The results in this text go back to patent publication US20230329245A1, “COMPOSITIONS AND METHODS OF USE THEREOF” (Curie Co. Inc., priority 2020, published 2023).

Where “and” joins values, the source holds several entries; their conditions need not be identical. Identical values can stand only once. Like-named read-outs stand apart in the source and are kept apart here.

Holding throughout (assay type): cell-based
For assay [1], the system named is E. coli ATCC 8739. As to the kind of experiment: Growth inhibition of E. coli culture in LB (OD600 / BacTiter-Glo). As to conditions: for inhibition at 3000 µg/mL / inhibition at 500 µg/mL: Escherichia coli, ATCC8739; for inhibition at 3000 µg/mL / inhibition at 500 µg/mL / growth inhibition / growth inhibition in the presence of 400 μg/mL Tgase SEQ ID NO: 6: E. coli ATCC 8739. How it is done: (§1) For MIC determination of bacterial cultures, E. coli ATCC 8739, DH5-alpha, DH10-beta, and B. subtilis BGSC 1A1276 was grown overnight (16-18 hours) in LB broth at 37° C. The following day, the cell density of the saturated cultures was calculated using OD600 and cultures were diluted to 10^4 to 10^6 CFU/mL in sterile LB media to generate the inoculum, and 90 μL of the inoculum was combined with 10 μL of serially diluted Tgase SEQ ID NO:1 at a range of 0.0001-0.01 weight percent in the presence or absence of 0.003% lysozyme (100-fold lower than the effective concentration). Growth curves were measured by OD600 on a BioTek® Synergy Plate Reader. Optionally, the following day, a cell viability assay such as BacTiter-Glo™ (Promega®) following manufacturer's protocols) could be used to assess cell viability. A decrease in OD600 or luminescence indicated a decrease in cell viability. Results are presented as a percent reduction in cell count relative to an untreated culture. All test conditions were performed in triplicate.
E. coli ATCC 8739 was grown overnight in LB broth at 37° C. The following day, the cell density of the saturated cultures was calculated using OD600 and cultures were diluted to 10^4 to 10^6 CFU/mL in sterile LB media to generate the inoculum, and 90 μL of the inoculum was combined with 10 μL of serially diluted Tgase SEQ ID NO:6 at a range of 0.001-0.1 weight percent in the presence or absence of chemical preservatives at concentrations above and below the calculated MIC value. A single concentration (at the MIC) of the chemical preservative and static concentrations of Tgase SEQ ID NO:6 (400 μg/mL, 0.04% w/v) are presented in Table 8 as representative examples. Growth curves were measured by OD600 on a BioTek® Synergy Plate Reader and a cell viability assay (BacTiter-Glo™, Promega®, following manufacturer's protocols) was used to assess cell viability. A decrease in OD600 or luminescence indicated a decrease in cell viability. Results are presented as a percent reduction in cell count relative to an untreated culture. […]

For assay [2], the system named is E. coli ATCC 8739. As to the kind of experiment: MIC determination, E. coli. How it is done:
(§2) A variant form of Streptomyces mobaraensis transglutaminase having the amino acid sequence depicted in SEQ ID NO:6 was prepared by literature methods with a hexa-his-tag to aid in purification (Javitt, et al. (2017) BMC Biotechnol. 17:23). The cells were grown in shake flasks, lysed by homogenization, and the Tgase variant (SEQ ID NO:6) was isolated from the cell debris by centrifugation. The resulting semi-purified enzyme (clarified lysate) were compared on an SDS-PAGE gel, by spectroscopy, and activity for concentration of active enzyme. The Tgase variant (SEQ ID NO:6) was further purified by affinity column on a Ni-IMAC resin prior to MIC assay. Tgase activity was measured in the examples herein using a colorimetric hydroxamate activity assay (Folk and Cole (1965) J Biol Chemistry 240(7):2951-2960). The enzyme was diluted to a working stock concentration of 2 mg/mL in CAMHB or RPMI media (bacterial or fungal media). This was then 2-fold serial diluted ten times in the appropriate media in a 96-well master plate to generate 2× starting concentrations for MIC testing.
(§3) Strains were acquired from the American Type Culture Collection (ATCC) (Manassas, VA) and maintained as −80° C. frozen glycerol stocks: S. aureus ATCC 6538, E. coli ATCC 8739, P. aeruginosa ATCC 9027, C. albicans ATCC 10231, and A. brasiliensis ATCC 16404. B. subtilis BGSC 1A1276 was purchased from the Bacillus Genetic Stock Center (BGSC) (Columbus, OH) and maintained as −80° C. frozen glycerol stock. Cation-adjusted Mueller-Hinton broth (CAMHB) at pH 7.3 was used for testing with bacterial species (unless otherwise noted), while RPMI 1640 media buffered with 0.165 M MOPS at pH 7.0 was used for testing with all fungal species.
For MIC determination, bacterial strains (S. aureus ATCC 6538, E. coli ATCC 8739, P. aeruginosa ATCC 9027) were grown overnight on Tryptic Soy Agar (TSA) plates at 37° C. A few colonies of each strain were collected with a sterile swab and used to make a McFarland 0.5 standard solution (approximately 1×10^8 CFU/mL) in sterile PBS. The McFarland solution was then diluted 1:100 in CAMHB to generate the inoculum, and 50 μL of this inoculum was combined with 50 μL of the 2× test article in a 96-well plate for a final concentration of 1×. All test conditions were performed in duplicate. The bacterial-strain MIC 96-well plates were incubated at 37° C. for 18 to 20 hours. MIC is defined as the lowest concentration of a compound in which no visible growth is observed.

Assay [3] concerns A. brasiliensis ATCC 16404. In words: MIC determination, A. brasiliensis. The following applies: RPMI 1640 pH 7.0, 25° C., up to 7 days, duplicate. How it is done: as §2, with “testing. […]” for “testing.”
(§4) C. albicans MIC 96-well plate was incubated for 37° C. for 24 to 48 hours. […] After incubation, all 96-well plates were examined visually and on a spectrophotometer at absorbance OD650. […]

Assay [4] deals with C. albicans ATCC 10231. As to the kind of experiment: MIC determination, C. albicans. As to conditions: RPMI 1640 pH 7.0, 37° C., 24 to 48 hours, duplicate. How it is done: as §2, with “testing. […]” for “testing.”
as §4

Assay [5] has as its system P. aeruginosa ATCC 9027. As to the kind of experiment: MIC determination, P. aeruginosa. The following applies: CAMHB pH 7.3, 37° C., 18 to 20 hours, duplicate. How it is done: as §2, §3
For MIC determination, bacterial strains (S. aureus ATCC 6538, E. coli ATCC 8739, P. aeruginosa ATCC 9027) were grown overnight on Tryptic Soy Agar (TSA) plates at 37° C. A few colonies of each strain were collected with a sterile swab and used to make a McFarland 0.5 standard solution (approximately 1×10^8 CFU/mL) in sterile PBS. […]

The subject of assay [6] is S. aureus ATCC 6538. As to the kind of experiment: MIC determination, S. aureus. As to conditions: CAMHB pH 7.3, 37° C., 18 to 20 hours, duplicate. How it is done: as §2
Strains were acquired from the American Type Culture Collection (ATCC) (Manassas, VA) and maintained as −80° C. frozen glycerol stocks: S. aureus ATCC 6538, E. coli ATCC 8739, P. aeruginosa ATCC 9027, C. albicans ATCC 10231, and A. brasiliensis ATCC 16404. […]

In assay [7] the test system is C. albicans ATCC 10231. In words: Growth reduction of C. albicans culture (OD600 / BacTiter-Glo). How it is done:
For MIC determination of yeast cultures, C. albicans ATCC 10231 was grown overnight (24 hours) in YPD media at 30° C. The following day, the cell density of the saturated cultures was calculated using OD600 and cultures were diluted to 10^4 to 10^6 CFU/mL in sterile YPD media to generate the inoculum, and 90 μL of the inoculum was combined with 10 μL of serially diluted Tgase SEQ ID NO:1 at a range of 0.0001-0.01 weight percent. The cultures were grown overnight at 30° C. and growth curves were measured by OD600 on a BioTek® Synergy Plate Reader. Optionally, the following day, a cell viability assay such as BacTiter-Glo™ (Promega®) following manufacturer's protocols) could be used to assess cell viability. A decrease in OD600 or luminescence indicated a decrease in cell viability. Results are presented as a percent reduction in cell count relative to an untreated culture. All test conditions were performed in triplicate.
(§5) Yeast or bacterial starter cultures were grown as described previously. Tgase (SEQ ID NO:6) was added to each culture at 0.001-1 weight percent. The cultures were grown overnight at 30° C.-37° C. and growth curves were measured by a BioTek® Synergy Plate Reader.

The test system of assay [8] is B. subtilis BGSC 1A1276. As to the kind of experiment: Growth reduction of B. subtilis culture (OD600 / BacTiter-Glo). How it is done:
as §1, §5

The mark [9] stands for this setting: Escherichia coli, ATCC8739, read-out: Concentration (MIC values; single concentration at the MIC of the chemical preservative).
Setting [10] is: CAMHB pH 7.3, 37° C., 18 to 20 hours, duplicate.

With `CCCCC(O)CO` (centres unmarked) [1,2-hexandiol], the inhibition at 3000 µg/mL in assay [1] (3,000 μg/mL preservative + 400 μg/mL Tgase SEQ ID NO: 6, read-out: growth inhibition in the presence of 400 μg/mL Tgase SEQ ID NO: 6) turned out to be 99.5%; in assay [1] (3,000 μg/mL, read-out: growth inhibition), 97.9%. The MIC in assay [2] (setting [9]) turned out to be 3000 mg/L.

For the molecule `CCCCCCC(O)CO` (centres unmarked) [1,2-octandiol], the inhibition at 500 µg/mL in assay [1] (500 μg/mL preservative + 400 μg/mL Tgase SEQ ID NO: 6, read-out: growth inhibition in the presence of 400 μg/mL Tgase SEQ ID NO: 6) was determined as 99.3%; in assay [1] (500 μg/mL, read-out: growth inhibition) it was 97.8%. Further, the MIC in assay [2] (setting [9]) came to 500 mg/L.

As for `Cn1sccc1=O` [MIT, Methylisothiazolinone], the growth inhibition in assay [1] (150 μg/mL) was 98.7%. For the same molecule, in assay [1] (150 μg/mL preservative + 400 μg/mL Tgase SEQ ID NO: 6), the “growth inhibition in the presence of 400 μg/mL Tgase SEQ ID NO: 6” value was 99.8%. Besides, the “Concentration (MIC values; single concentration at the MIC of the chemical preservative)” value (from here on “Concentration”) in assay [2] is 150 µg/mL.

`O=C([O-])c1ccccc1.[Na+]` [Sodium benzoate, sodium benzoate]: in assay [1] (10,000 μg/mL), the growth inhibition is on record as 99.85%. Besides, in assay [1] (10,000 μg/mL preservative + 400 μg/mL Tgase SEQ ID NO: 6), the “growth inhibition in the presence of 400 μg/mL Tgase SEQ ID NO: 6” value was 99.97%. The MIC in assay [3] was 2,500 μg/mL and 1,250 μg/mL; in assay [4] it was >20,000 μg/mL; in assay [5] it was 10,000 μg/mL; in assay [6] it was 10,000 μg/mL; in assay [2] (setting [10]), 10,000 μg/mL. Besides, the “Concentration” value in assay [2] was 10,000 μg/mL.

Take Benzalkonium chloride: the growth inhibition in assay [1] (16 μg/mL) worked out at 99.7%. Besides, in assay [1] (16 μg/mL preservative + 400 μg/mL Tgase SEQ ID NO: 6), the “growth inhibition in the presence of 400 μg/mL Tgase SEQ ID NO: 6” value worked out at 99.94%. The MIC in assay [4] is 3.91 µg/mL; in assay [5], 62.5 µg/mL and 31.25 µg/mL; in assay [2] (setting [10]), 15.63 mg/L. In addition, the “Concentration” value in assay [2] was 16 µg/mL.

B1: Tgase (SEQ ID NO: 1): wild-type Streptomyces mobaraensis transglutaminase, mature form, amino acid sequence SEQ ID NO:1 (protein, listed as Streptomyces mobaraensis)
chain: DSDDRVTPPAEPLDRMPDPYRPSYGRAETVVNNYIRKWQQVYSHRDGRKQQMTEEQREWLSYGCVGVTWVNSGQYPTNRLAFASFDEDRFKNELKNGRPRSGETRAEFEGRVAKESFDEEKGFQRAREVASVMNRALENAHDESAYLDNLKKELANGNDALRNEDARSPFYSALRNTPSFKERNGGNHDPSRMKAVIYSKHFWSGQDRSSSADKRKYGDPDAFRPAPGTGLVDMSRDRNIPRSPTSPGEGFVNFDYGWFGAQTEADADKTVWTHGNHYHAPNGSLGAMHVYESKFRNWSEGYSDFDRGAYVITFIPKSWNTAPDKVKQGWP
B1: the growth inhibition in assay [1] (960 μg/mL) came to 0.0%. Further, in assay [1] (gram negative E. coli ATCC 8739, DH5-alpha and DH10-beta, under the concentrations evaluated), the antimicrobial activity entry is recorded as “little or no detectable antimicrobial activity”. Further, the “Fold improvement in enzyme efficacy” value in assay [7] (C. albicans ATCC 10231, Tgase (SEQ ID NO: 1) = 1) was 1; in assay [8] (Tgase (SEQ ID NO: 1) alone = 1) it was 1. For the same molecule, the “Percent Growth Reduction” value worked out at 83.11% in assay [7] (C. albicans ATCC 10231, enzyme concentration 800 ug/mL) and 99.17% in assay [8] (enzyme concentration 960 ug/mL). The “growth inhibition (in words)” value in assay [7] (C. albicans, Tgase alone) is reported as “partially inhibited”; in assay [8] (Tgase alone), “partially inhibited”; in assay [8] (upon adding a cell membrane disruptor, lysozyme), “Full inhibition”.
